According to patent US10106582B2, “Complex-formation-modulating agents and uses therefor” (Factor Therapeutics Limited, priority 2012, dated 2018):

What was measured:
MCF-7 cells [1] = experiment: Transwell migration assay, IGF-I+IGFBP-5+VN trimeric complex-stimulated MCF-7 cell migration; format: cell-based, human
Source text: Two motifs (motifs 1 and 8) within native VN, deemed potentially significant in supporting the binding of IGF-II, IGFBP-3 and IGFBP-5, were identified as outlined in the previous section. After preliminary in silico analyses motif 8 (J4-7) was deemed as potentially the most significant region within native VN supporting binding interactions of all the three IGF-II, IGFBP-3 and IGFBP-5 proteins and was chosen for the initial analyses. The VN-peptide covering the sequences of motif 8 was designed such that it covered all the 3AA frameshift sets that contributed to a positive spot within the motif 8 (see, FIG. 3 and Table 7). The sequence of this peptide is RVNLRTRRVDTVDPPYPRS [SEQ ID NO:100] and is designated P8. […] The sequence of that peptide is […] [SEQ ID NO:86] and is designated P7. […] The functional effects of these peptides on IGF-I:IGFBP:VN-stimulated breast cancer cell migration were investigated using Transwell® assays. Transwells® were pre-bound with VN, either alone or in combination with IGF-I and IGFBP-5 (TRI). Treatment with TRI supplemented with increasing concentrations of peptides P7 and/or P8 were assayed. TRI supplemented with Anlg or Neg peptide were included as positive and negative controls of migration inhibition, respectively. All unbound proteins were removed with washing and MCF-7 cell migration was assessed over 15 hours.
The Transwell® inserts were prepared by pre-binding the lower chamber and the under-surface of the 8-μm pore membranes with proteins as described below. For all 2D functional assays described throughout this study, including Transwell® the treatments for the pre-binding steps were VN, IGF-I+IGFBP-5+VN (TRI) complex, either alone or in combination with respective controls or VN-peptides. The concentrations of the proteins added into the culture wells were VN, 1 μg/mL; IGF-I, 30 ng/mL and IGFBP-5, 90 ng/mL, unless otherwise stated. The concentration of VN-peptides used are indicated where appropriate.
Optimal IGF-I:IGFBP-5:VN-mediated attachment and migration of MCF-7 cells in multiwell plates is obtained by pre-binding human native-IGF-I and/or IGFBP-5 and VN at concentrations of 30 ng/mL, 90 ng/mL and 1 μg/mL per well, respectively, to the lower chambers and under surfaces of Transwells®. […] For Anlg, concentrations varying from 30 ng/mL to 300 ng/mL were used.
Transwells® were prepared by pre-binding the test proteins, either alone or in combinations, to the lower chambers and under-surfaces of Transwells® following procedures previously described (Kricker et al., 2003). Briefly, 0.5 mL DMEM/F12 serum-free phenol-red free medium (SFM) containing 1 μg/mL VN was added to the lower chambers of 24-well, 8-μm pore Transwell® plates and incubated for 3 hours at 37° C. Unbound VN was removed and the wells were washed twice with 0.5 mL SFM+0.5% BSA following which 0.5 mL of SFM+0.5% BSA was placed in the lower chamber to block surfaces with no protein bound. To pre-bind growth factors, 0.5 mL SFM+0.05% BSA containing native IGF-I (30 ng/mL), IGFBP-5 (90 ng/mL) or Anlg, either alone or in combination, were added to the lower chambers of the Transwells® and incubated overnight at 4° C. The solution containing unbound growth factors was removed and the wells were washed twice with SFM+0.05% BSA and replaced with 0.5 mL of SFM+0.05% BSA. Throughout the pre-binding procedure care was taken to keep the upper surface of the Transwell® inserts dry.
Migration assays were essentially performed following protocols described previously in Leavesley et al 1993, J Cell Biol. 121:163-70. The cells in culture flasks were split 1:1, 24 hours prior to performing the migration assay. The cells were serum-starved for 4 hours and a cell suspension containing 6×10^4 cells in 200 μL SFM+0.05% BSA was seeded onto the upper-surface of the pre-coated Transwell® inserts and incubated for 15 hours at 37° C., 5% CO2 (refer to above for proteins pre-bound and concentrations used). […]

MCF-7 cells [2] = experiment: Transwell migration assay, IGF-I+IGFBP-3+VN (TRI)-stimulated MCF-7 cell migration; format: cell-based, human
Procedure: FIG. 6 is a graphical representation showing MCF-7 cell migration in response to VN peptides. MCF-7 cells were seeded onto the upper-surface of a Transwell inserts coated on the under-surface with treatments containing IGF-I+IGFBP-3+VN (TRI; 10 nM) with or without increasing concentrations of either peptide P7, P8 or Pneg. Migration was assessed after 15 hours. Data is represented as percentage of change in migration compared to the TRI only control. Error bars indicate standard error mean.
This assay has been repeated three times with treatments tested in triplicate wells in each replicate experiment.
The breast cancer epithelial cell line MCF-7 was used for this assay. Migration was assessed by measuring relative number of cells migrating through 8-μm pore Transwell membranes in response to substrate-bond proteins complexes. IGFBP-3 was allowed to bind either peptide P7, P8 or a combination of P7 and P8 for 2 hours. IGF-I was later added to this protein mix which was then added to Transwells pre-coated with VN. Post-overnight incubation, unbound proteins were removed, Transwells washed twice and cells seeded onto the upper chamber. Cells migrated to the under-surface over 15 hours were indirectly quantified using crystal violet staining.

[3] = increasing peptide concentrations added to TRI (IGF-I+IGFBP-3+VN; 10 nM), 15 hours

Sequence: KTYLFKGSQYWRFEDG [Neg, reference compound]
- MCF-7 cell migration (MCF-7 cells [1]; TRI supplemented with non-binding peptide, concentration not given, 15 hours): 276±24 % of VN
- Effect on TRI-stimulated MCF-7 cell migration (MCF-7 cells [1]; non-binding peptide supplemented into TRI, concentration not given): did not affect
- Inhibition of TRI-stimulated MCF-7 cell migration (MCF-7 cells [2]; [3]): no inhibition of cell migration was observed

Sequence: LFSSEESNLGANNYDDYRMDWL (listed as Homo sapiens) [Peptide P7, human VN motif 7 mimic]
- MCF-7 cell migration (MCF-7 cells [1]; TRI supplemented with peptide at 3× molar concentration of IGFBP-5 (43 ng/mL P7, 38 ng/mL P8), 15 hours): 94.7±0.2 % of VN
- MCF-7 cell migration (MCF-7 cells [1]; TRI supplemented with peptide at 9× molar concentration of IGFBP-5, 15 hours): 146±14 % of VN
- Inhibition of TRI-stimulated MCF-7 cell migration (MCF-7 cells [2]; 30 nM peptide dose, TRI 10 nM, 15 hours (most significant inhibition)): returned to the ‘VN only’ treatment levels
- Inhibition of TRI-stimulated MCF-7 cell migration (MCF-7 cells [2]; [3]): dose dependent inhibition
